The text below walks through data of ChEMBL document CHEMBL1129977, “Antitumor agents. 172. Synthesis and biological evaluation of novel deacetamidothiocolchicin-7-ols and ester analogs as antitubulin agents” (J Med Chem, 1997).

Assay [1] deals with Tubulin alpha chain (Sus scrofa) (UniProt P02550). Briefly: Binding affinity of [3H]- colchicine (5.0 uM) to tubulin (1.0 uM, 0.1 mg/mL) was evaluated at concentration of 50 uM.
Assay [2] has the same target. As to conditions: at 5 µM.
A further assay has as its target Tubulin. Put plainly: Inhibition of Tubulin polymerization after 20 minutes of administration at 30 degree Centigrade. Type of assay: functional, organism-based.
The subject of the next assay is CA46. Briefly: Inhibits the growth of the human Burkitt lymphoma CA46 cell. It is filed as functional, cell-based.

Chain of Tubulin alpha chain (Sus scrofa) (P02550 whole entry, looked up): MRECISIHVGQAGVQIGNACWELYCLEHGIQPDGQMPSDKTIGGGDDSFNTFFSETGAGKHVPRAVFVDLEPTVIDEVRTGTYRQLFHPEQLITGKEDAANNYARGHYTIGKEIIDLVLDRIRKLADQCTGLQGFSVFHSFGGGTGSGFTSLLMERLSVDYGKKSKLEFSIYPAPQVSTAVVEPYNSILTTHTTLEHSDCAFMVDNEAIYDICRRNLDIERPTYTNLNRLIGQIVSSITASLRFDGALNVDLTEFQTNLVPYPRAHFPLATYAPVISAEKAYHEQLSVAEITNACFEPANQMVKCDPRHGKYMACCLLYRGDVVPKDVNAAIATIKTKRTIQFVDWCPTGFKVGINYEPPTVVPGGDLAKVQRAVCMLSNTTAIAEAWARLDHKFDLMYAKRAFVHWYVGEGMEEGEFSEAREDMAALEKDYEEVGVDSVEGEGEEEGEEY

One may read the inhibition as the change of the read-out against control, counted positive when it falls. Low values mean a response near the control, high ones a response far below the control. Turning to `COc1cc2c(c(OC)c1OC)-c1ccc(SC)c(=O)cc1[C@H](O)CC2`, the inhibition in assay [1] is 73%; in assay [2], 16%.
As a reminder, the IC50 is the concentration that gives 50% inhibition. A low value points to greater potency. As for `CCCC(=O)OC1CCc2cc(OC)c(OC)c(OC)c2-c2ccc(SC)c(=O)cc21` (centres undefined), the midpoint of inhibition on Tubulin, the IC50, lay at 1500 nM.
Still for that read-out and setting: the result for `COc1cc2c(c(OC)c1OC)-c1ccc(SC)c(=O)cc1C(OC(=O)c1ccccc1)CC2` (centres undefined) reads 1400 nM; that for `COc1cc2c(c(OC)c1OC)-c1ccc(SC)c(=O)cc1[C@H](OC(=O)C13CCC(C)(C(=O)O1)C3(C)C)CC2` (some centres undefined), 17000 nM.
On Tubulin, `COc1cc2c(c(OC)c1OC)-c1ccc(SC)c(=O)cc1[C@@H](OC(=O)C13CCC(C)(C(=O)O1)C3(C)C)CC2` (some centres undefined) returned an IC50 of 1400 nM. Compared with the last compound, the IC50 is about 12-fold lower.
For the compound `COc1cc2c(c(OC)c1OC)-c1ccc(SC)c(=O)cc1[C@@H](O)CC2`, the half-inhibitory concentration (IC50) in the assay on CA46 was determined as 2.8 µM. In assay [2], this compound gave an inhibition of 85%.
At Tubulin, `COc1cc2c(c(OC)c1OC)-c1ccc(SC)c(=O)cc1C(Br)CC2` (centres undefined) yielded an IC50 of 1100 nM.
For the compound `COc1cc2c(c(OC)c1OC)-c1ccc(SC)c(=O)cc1C(OC(=O)c1ccncc1)CC2` (centres undefined) [listing 1 of 2 here], the IC50 on Tubulin was found to be 1100 nM.
In the assay on CA46, `COc1cc2c(c(OC)c1OC)-c1ccc(SC)c(=O)cc1[C@@H](OC(C)=O)CC2` came in with an IC50 of 3.4 µM. This compound gave an inhibition in assay [2] of 79%.
In the case of `COc1cc2c(c(OC)c1OC)-c1ccc(SC)c(=O)cc1[C@H](OC(C)=O)CC2`, the IC50 in the assay with CA46 was found to be 40 µM. Moreover, the inhibition was 74% in assay [1] and 11% in assay [2].
As for `COc1cc2c(c(OC)c1OC)-c1ccc(SC)c(=O)cc1[C@@H](OC(=O)c1cccnc1)CC2`, the IC50 is 27 µM with CA46 and 760 nM on Tubulin. In assay [2], the inhibition stood at 65%.
For `CCCC(=O)O[C@H]1CCc2cc(OC)c(OC)c(OC)c2-c2ccc(SC)c(=O)cc21` the same measures were 29 µM, 850 nM and 66%.
Turning to `COc1cc2c(c(OC)c1OC)-c1ccc(SC)c(=O)cc1C(OC(=O)c1ccncc1)CC2` (centres undefined) [listing 2 of 2 here], the IC50 against Tubulin was 970 nM.
Turning to `COc1cc2c(c(OC)c1OC)-c1ccc(SC)c(=O)cc1[C@@H](OC(=O)c1ccncc1)CC2`, the figures for the IC50 with CA46 and at Tubulin were 2.8 µM and 560 nM, respectively. In assay [2], the inhibition was 69%.
In turn, `COc1cc2c(c(OC)c1OC)-c1ccc(SC)c(=O)cc1C(OC(=O)c1cccnc1)CC2` (centres undefined) returned an IC50 against Tubulin of 880 nM.
Regarding `COc1cc2c(c(OC)c1OC)-c1ccc(SC)c(=O)cc1C(=O)CC2` [THIOCOLCHICONE], the IC50 in the assay with CA46 is 18 µM; against Tubulin, 760 nM. For the same compound, the inhibition in assay [2] stood at 70%.
